Experimental data published in publication PMC10541190 (The Journal of Clinical Investigation, 2023).
pEC50: −log10 of the molar value. Values joined by “and” are separate entries in the source; they are usually repeats but may differ in a detail not shown here. Equal entries are not always repeated. Where two headings read alike, the source gives them in different places.

What was measured:
[1] = tested on: VEEV (TC-83); assay: microbe, parasite or virus in culture; assay type: cell-based; details: Venezuelan equine encephalitis virus, U-87 MG, read-out: EC50, VEEV (TC-83) infection
[2] = tested on: A549 cells; details: human
[3] = tested on: TNF-α, IL-1β, IL-6, MCP-1; assay type: cell-based, human
[4] = tested on: rVSV-SARS-CoV-2-S; assay type: cell-based
[5] = in vitro; details: human, Cell viability (%)
[6] = tested on: SARS-CoV-2 main protease (Mpro); details: cited from earlier work
[7] = tested on: SARS-CoV-2 (USA-WA1/2020); assay: microbe, parasite or virus in culture; assay type: cell-based; details: Severe acute respiratory syndrome coronavirus 2, read-out: EC50, nucleocapsid transcript expression by RT-qPCR
[8] = tested on: SARS-CoV-2 (USA-WA1/2020); assay: microbe, parasite or virus in culture; assay type: cell-based; details: Severe acute respiratory syndrome coronavirus 2, Vero
[9] = tested on: brain microvascular endothelial cell monolayer
[10] = tested on: VEEV (TrD); assay type: cell-based
[11] = tested on: DENV2; assay type: cell-based

For CS(=O)(=O)CCNCc1ccc(-c2ccc3ncnc(Nc4ccc(OCc5cccc(F)c5)c(Cl)c4)c3c2)o1 [Lapatinib], the pEC50 [1] was 5.92, the “A549 viability (%)” value [2] was 103.13% and the “IL-6 concentration in ALOs' supernatants” value [3] was 6.30 pg/mL and 5.01 pg/mL and 5.83 pg/mL and 5.58 pg/mL and 5.85 pg/mL and 5.34 pg/mL and 4.40 pg/mL and 3.70 pg/mL. The “MCP-1 concentration in ALOs' supernatants” value [3] was 39.85 pg/mL and 40.23 pg/mL and 32.64 pg/mL and 29.59 pg/mL and 33.59 pg/mL and 31.32 pg/mL and 47.61 pg/mL and 36.68 pg/mL, the “concentration achieving cytokine levels at or lower than in uninfected monolayers” value [3] was 0.5 µM and the “expression level of MCP-1” value [3] was “increased”. For the same molecule, the “expression level of TNF-α, IL-1β and IL-6” value [3] was “dose-dependently reduced”, the “effect on rVSV-SARS-CoV-2-S infection when added upon or after virus binding” value [4] was “comparable effects” and the viability at 20 µM [5] was 68.5%. The “effect on SARS-CoV-2 main protease (Mpro)” value [6] was “inhibits”, the pEC50 [7] was greater than 6.70 and the pEC50 ([8]; 24 h, read-out: SARS-CoV-2 EC50) was 6.30. The pEC50 ([8]; read-out: EC50, SARS-CoV-2 infection) was 6.30, the “barrier integrity (FITC-dextran permeability)” value [9] was “maintained barrier integrity” and the “VEEV (TrD) replication in vascular and brain sides of the gNVU” value [10] was “suppressed VEEV (TrD) replication”. For the same molecule, the “replication of DENV2” value [11] was “dose-dependently inhibited replication”.
